Values of other authors as cited in patent publication US8992947B2, “Method for predicting therapeutic effect of chemotherapy on renal cell cancer” (Taiho Pharmaceutical Co., Ltd., priority 2009, dated 2015).

Tested on: renal cell carcinoma
Details: most effective agent in summary of 83 clinical test results

Row | SMILES | response rate [%]
1 | O=c1[nH]cc(F)c(=O)[nH]1 [5-fluorouracil (5-FU), 5-fluorouracil] | 13.4
2 | O=c1[nH]c(=O)n([C@H]2C[C@H](O)[C@@H](CO)O2)cc1F [floxuridine] | 13.4
